Data taken from ChEMBL document CHEMBL1146259, “Structure-activity relationships of the ultrapotent vanilloid resiniferatoxin (RTX): the homovanillyl moiety” (Bioorg Med Chem Lett, 2007).

target: Transient receptor potential cation channel subfamily V member 1 (Homo sapiens, UniProt Q8NER1); assay: Agonist activity at human recombinant TRPV1 expressed in human HEK293 cells; format: functional, cell-based
Sequence (Q8NER1 whole entry): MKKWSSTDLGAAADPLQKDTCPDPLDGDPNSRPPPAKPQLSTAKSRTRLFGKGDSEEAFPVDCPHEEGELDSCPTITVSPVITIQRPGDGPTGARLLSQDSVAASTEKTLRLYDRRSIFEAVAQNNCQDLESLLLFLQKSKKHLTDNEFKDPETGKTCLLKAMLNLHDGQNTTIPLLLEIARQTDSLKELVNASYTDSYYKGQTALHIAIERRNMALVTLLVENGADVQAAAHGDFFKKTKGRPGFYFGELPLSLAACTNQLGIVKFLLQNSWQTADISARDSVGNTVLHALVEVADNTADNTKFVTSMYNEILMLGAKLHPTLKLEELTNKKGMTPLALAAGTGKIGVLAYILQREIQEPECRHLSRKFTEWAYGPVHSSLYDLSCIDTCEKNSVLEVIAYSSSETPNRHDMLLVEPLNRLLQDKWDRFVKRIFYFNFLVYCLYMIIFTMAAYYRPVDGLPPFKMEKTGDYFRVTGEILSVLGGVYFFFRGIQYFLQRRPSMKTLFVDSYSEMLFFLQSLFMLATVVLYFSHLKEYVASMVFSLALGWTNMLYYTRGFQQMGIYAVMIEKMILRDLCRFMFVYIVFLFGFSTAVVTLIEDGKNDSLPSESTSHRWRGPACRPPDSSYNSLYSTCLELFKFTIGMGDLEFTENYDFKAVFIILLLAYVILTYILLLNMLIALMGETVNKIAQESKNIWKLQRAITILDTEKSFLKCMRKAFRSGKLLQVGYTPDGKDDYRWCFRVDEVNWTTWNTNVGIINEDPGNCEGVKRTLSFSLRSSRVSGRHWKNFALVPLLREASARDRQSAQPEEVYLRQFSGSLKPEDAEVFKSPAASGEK

Compared with C=C(C)[C@]12C[C@@H](C)[C@@]3(OCc4ccccc4)[C@@H](C=C(COC(=O)c4ccccc4)C[C@]4(O)C(=O)C(C)=C[C@@H]34)[C@H]1OCO2, C=C(C)[C@]12C[C@@H](C)[C@@]3(OCc4ccccc4)[C@@H](C=C(COC(=O)Cc4ccccc4)C[C@]4(O)C(=O)C(C)=C[C@@H]34)[C@H]1OCO2 is 5.4-fold lower in EC50: 25.5 nM for the first, 4.7 nM for the second. The second is the more potent here.

C=C(C)[C@]12C[C@@H](C)[C@@]3(OCc4ccccc4)[C@@H](C=C(COC(=O)CCc4ccccc4)C[C@]4(O)C(=O)C(C)=C[C@@H]34)[C@H]1OCO2 and C=C(C)[C@]12C[C@@H](C)[C@@]3(OCc4ccccc4)[C@@H](C=C(COC(=O)/C=C/c4ccccc4)C[C@]4(O)C(=O)C(C)=C[C@@H]34)[C@H]1OCO2 are within 1.5-fold of each other in EC50: 51.5 nM for the first, 69.5 nM for the second.

C=C(C)[C@]12C[C@@H](C)[C@@]3(OCc4ccccc4)[C@@H](C=C(COC(=O)CCc4cc(I)c(O)c(OC)c4)C[C@]4(O)C(=O)C(C)=C[C@@H]34)[C@H]1OCO2 and C=C(C)[C@]12C[C@@H](C)[C@@]3(OCc4ccccc4)[C@@H](C=C(COC(=O)CCc4cc(OC)c(O)cc4I)C[C@]4(O)C(=O)C(C)=C[C@@H]34)[C@H]1OCO2 are within 1.5-fold of each other in EC50: 8.6 nM for the first, 7.9 nM for the second.

Compared with C=C(C)[C@]12C[C@@H](C)[C@@]3(OCc4ccccc4)[C@@H](C=C(COC(=O)c4cc(OC)c(O)cc4I)C[C@]4(O)C(=O)C(C)=C[C@@H]34)[C@H]1OCO2, C=C(C)[C@]12C[C@@H](C)[C@@]3(OCc4ccccc4)[C@@H](C=C(COC(=O)c4cc(I)c(O)c(OC)c4)C[C@]4(O)C(=O)C(C)=C[C@@H]34)[C@H]1OCO2 is 8-fold lower in EC50: 15.2 nM for the first, 1.9 nM for the second.

Going from C=C(C)[C@]12C[C@@H](C)[C@@]3(OCc4ccccc4)[C@@H](C=C(COC(=O)CCc4ccc(O)c(OC)c4)C[C@]4(O)C(=O)C(C)=C[C@@H]34)[C@H]1OCO2 to C=C(C)[C@]12C[C@@H](C)[C@@]3(OCc4ccccc4)[C@@H](C=C(COC(=O)c4ccc(O)c(OC)c4)C[C@]4(O)C(=O)C(C)=C[C@@H]34)[C@H]1OCO2, the EC50 rises from 4.6 nM to 9.4 nM (2-fold). The first is the more potent here.

Compared with C=C(C)[C@]12C[C@@H](C)[C@@]34O[C@](Cc5ccccc5)(O[C@@H]1[C@@H]3C=C(COC(=O)Cc1ccc(O)c(OC)c1)C[C@]1(O)C(=O)C(C)=C[C@@H]41)O2 [RESINIFERATOXIN], C=C(C)[C@]12C[C@@H](C)[C@@]3(OCc4ccccc4)[C@@H](C=C(COC(=O)/C=C/c4ccc(O)c(OC)c4)C[C@]4(O)C(=O)C(C)=C[C@@H]34)[C@H]1OCO2 is 79-fold higher in EC50: 0.019 nM for the first, 1.5 nM for the second.
